Paper PMC11950731 (Synthetic and Systems Biotechnology, 2025)

Assays:
PpUGT91AH5 = test: LC-MS glucosyltransferase assay, varied trillin; assay type: biochemical, Paris polyphylla; details: saturating UDP-glucose; assay buffer 50 mM Tris-HCl pH 8.0, 1 mM MgCl2, 37 °C
PpUGT91AH4 = test: LC-MS glucosyltransferase assay, varied trillin; assay type: biochemical, Paris polyphylla; details: saturating UDP-glucose; assay buffer 50 mM Tris-HCl pH 8.0, 1 mM MgCl2, 37 °C

Km (PpUGT91AH5): 7.81 ± 1.2 mM
Km (PpUGT91AH4): 5.67 ± 0.84 mM
Structure (SMILES): C[C@@H]1CC[C@@]2(OC1)O[C@H]1C[C@H]3[C@@H]4CC=C5C[C@@H](O[C@@H]6O[C@H](CO)[C@@H](O)[C@H](O)[C@H]6O)CC[C@]5(C)[C@H]4CC[C@]3(C)[C@H]1[C@@H]2C [trillin]
